# Where two headings read alike, the source gives them in different places.
# How the values were obtained:
# [1] = tested on: H. influenzae; assay: MIC, broth microdilution; type: cell-based, Haemophilus influenzae; conditions: Haemophilus influenzae, ATCC49247, H. influenzae ATCC49247, Azi-S; read-out: MIC
# Outline: (§1)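 Minimum inhibitory concentrations were measured by broth microdilution following CLSI guidelines. Plates were incubated at 37 °C for 16–20 h before results were read and recorded, and each determination was repeated at least three times.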
# [2] = tested on: S. pneumoniae; assay: MIC, broth microdilution; type: cell-based, Streptococcus pneumoniae; conditions: Streptococcus pneumoniae, read-out: MIC
# Outline: as §1
# [3] = tested on: S. pyogenes; assay: MIC, broth microdilution; type: cell-based, Streptococcus pyogenes; conditions: Streptococcus pyogenes, read-out: MIC
# Outline: as §1
# [4] = tested on: S. aureus; assay: MICs and MBCs against selected S. aureus isolates; type: cell-based, Staphylococcus aureus
# [5] = tested on: M. catarrhalis; assay: MIC, broth microdilution; type: cell-based, Moraxella catarrhalis; conditions: Moraxella catarrhalis; M. catarrhalis 13L332, Ery-S; read-out: MIC
# Protocol: MICs were determined by the microdilution method according to the Clinical and Laboratory Standards Institute guidelines. Briefly, the stock solution of compounds and the reference antibiotics were diluted 2-fold in sterile 96-well plates with cation-adjusted Mueller-Hinton broth, and mixed with CAMHB-containing bacteria to give a final inoculum of 5 × 10^5 CFU/mL for broth microdilution experiments. […] Finally, the 96-well plates were incubated at 37 °C for 16–20 h to observe and record the results. The lowest concentration at which no bacterial growth could be observed visually was identified as the MICs of the compounds. The assay for MICs was replicated at least three times.
# [6] = ATCC49619, S. pneumoniae ATCC49619, Ery-S
# [7] = Staphylococcus aureus, MRSA, strain 1, MRSA, i-ermA
# [8] = Staphylococcus aureus, MRSA, strain 4, MRSA, i-ermA
# [9] = Staphylococcus aureus, MRSA, strain 5, MRSA, i-ermC
# [10] = Staphylococcus aureus, MRSA, strain 6, MRSA, c-ermB
# [11] = Staphylococcus aureus, MRSA, strain 7, MRSA, c-ermB
# [12] = Staphylococcus aureus, MRSA, strain 10, MRSA, c-ermB
# [13] = Staphylococcus aureus, MRSA, strain 11, MRSA, c-ermB
# [14] = S. pneumoniae 05O173, c-ermB, mef
compound,measurement,setting,value
CC[C@H]1OC(=O)[C@@](C)(F)C(=O)[C@H](C)[C@@H](O[C@@H]2O[C@H](C)C[C@H](N(C)C)[C@H]2O)[C@](C)(OC)C[C@@H](C)C(=O)[C@H](C)[C@H]2N(CCCCn3cc(-c4cccc(N)c4)nn3)C(=O)O[C@]12C [solithromycin],MIC,[1],2 µg/mL
same,MIC,[2]; [6],0.016 µg/mL
same,MIC,"[2]; S. pneumoniae 07P390, c-ermB",0.03 µg/mL
same,MIC,"[2]; S. pneumoniae PU09, mef",0.5 µg/mL
same,MIC,"[3]; S. pyogenes 01-968, i-ermTR (Table S5)",0.016 µg/mL
same,MIC,"[3]; S. pyogenes 12-206, c-ermB (Table S5)",0.03 µg/mL
same,MBC/MIC,[4]; S. aureus ATCC29213,> 8
same,MIC,"[4]; Staphylococcus aureus, ATCC29213, S. aureus ATCC29213 (Table S10), read-out: MIC",0.06 µg/mL
same,MBC,[4]; [7],> 0.5 µg/mL
same,MIC,[4]; [7],0.06 µg/mL
same,MBC,[4]; [8],> 0.5 µg/mL
same,MIC,[4]; [8],0.06 µg/mL
same,MBC,[4]; [9],0.5 µg/mL
same,MIC,[4]; [9],0.06 µg/mL
same,MBC,[4]; [10],> 2 µg/mL
same,MIC,[4]; [10],0.25 µg/mL
same,MBC,[4]; [11],> 4 µg/mL
same,MIC,[4]; [11],0.5 µg/mL
same,MBC,[4]; [12],> 2 µg/mL
same,MIC,[4]; [12],0.25 µg/mL
same,MBC,[4]; [13],> 2 µg/mL
same,MIC,[4]; [13],0.25 µg/mL
same,MIC,"[4]; Staphylococcus aureus, MSSA, strain 2, MSSA, i-ermC, read-out: MIC",0.06 µg/mL
same,MIC,"[4]; Staphylococcus aureus, MSSA, strain 3, MSSA, i-ermC, read-out: MIC",0.06 µg/mL
same,MBC,"[4]; Staphylococcus aureus, MSSA, strain 8, MSSA, c-ermB",128 µg/mL
same,MIC,"[4]; Staphylococcus aureus, MSSA, strain 8, MSSA, c-ermB, read-out: MIC",16 µg/mL
same,MBC,"[4]; Staphylococcus aureus, MSSA, strain 9, MSSA, c-ermB",> 256 µg/mL
same,MIC,"[4]; Staphylococcus aureus, MSSA, strain 9, MSSA, c-ermB, read-out: MIC",32 µg/mL
same,MBC,"[4]; Staphylococcus aureus, S. aureus ATCC29213, read-out: MBC",> 0.5 µg/mL
same,MBC,"[4]; Staphylococcus aureus, strain 3, MSSA, i-ermC, read-out: MBC",> 0.5 µg/mL
same,bactericidal or bacteriostatic by MBC/MIC,[4]; selected S. aureus isolates,bacteriostatic against all selected isolates
same,MBC/MIC,"[4]; strain 1, MRSA, i-ermA",> 8
same,MBC,"[4]; strain 2, MSSA, i-ermC",> 0.5 µg/mL
same,MBC/MIC,"[4]; strain 2, MSSA, i-ermC",> 8
same,MBC/MIC,"[4]; strain 3, MSSA, i-ermC",> 8
same,MBC/MIC,"[4]; strain 4, MRSA, i-ermA",> 8
same,MBC/MIC,"[4]; strain 5, MRSA, i-ermC",8
same,MBC/MIC,"[4]; strain 6, MRSA, c-ermB",> 8
same,MBC/MIC,"[4]; strain 7, MRSA, c-ermB",> 8
same,MBC/MIC,"[4]; strain 8, MSSA, c-ermB",8
same,MBC/MIC,"[4]; strain 9, MSSA, c-ermB",> 8
same,MBC/MIC,"[4]; strain 10, MRSA, c-ermB",> 8
same,MBC/MIC,"[4]; strain 11, MRSA, c-ermB",> 8
CC[C@H]1OC(=O)[C@H](C)[C@@H](OC(=O)NCCCCCCC#Cc2ccc3c(=O)c(C(=O)O)cn(C)c3c2)[C@H](C)[C@@H](O[C@@H]2O[C@H](C)C[C@H](N(C)C)[C@H]2O)[C@](C)(O)C[C@@H](C)CN(C)[C@H](C)[C@@H](O)[C@]1(C)O [106g],MIC,[1],8 µg/mL
same,MIC,[2]; [6],0.25 µg/mL
same,MIC,[2]; [14],128 µg/mL
same,MIC,"[2]; S. pneumoniae 07P390, c-ermB",4 µg/mL
same,MIC,[5],0.5 µg/mL
same,MIC,"[3]; S. pyogenes 12-206, c-ermTR",4 µg/mL
CC[C@H]1OC(=O)[C@H](C)[C@@H](OC(=O)NCCCOCCC#Cc2ccc3c(=O)c(C(=O)O)cn(CC)c3c2)[C@H](C)[C@@H](O[C@@H]2O[C@H](C)C[C@H](N(C)C)[C@H]2O)[C@](C)(OC)C[C@@H](C)C(=O)[C@H](C)[C@H]2NC(=O)O[C@@]21C [95f],MIC,[2]; [6],≤ 0.008 µg/mL
same,MIC,[2]; [14],4 µg/mL
same,MIC,"[2]; S. pneumoniae 07P390, c-ermB",0.12 µg/mL
same,MIC,[5],0.5 µg/mL
same,MIC,"[3]; S. pyogenes 12-206, c-ermTR",0.5 µg/mL
CC[C@H]1OC(=O)[C@H](C)[C@@H](OC(=O)NCCCOCCC#Cc2ccc3c(=O)c(C(=O)O)cn(C4CC4)c3c2)[C@H](C)[C@@H](O[C@@H]2O[C@H](C)C[C@H](N(C)C)[C@H]2O)[C@](C)(OC)C[C@@H](C)C(=O)[C@H](C)[C@H]2NC(=O)O[C@@]21C [95c],MIC,[1],2 µg/mL
same,MIC,[2]; [6],0.03 µg/mL
same,MIC,[2]; [14],4 µg/mL
same,MIC,"[2]; S. pneumoniae 07P390, c-ermB",0.25 µg/mL
same,MIC,[5],0.5 µg/mL
same,MIC,"[3]; S. pyogenes 12-206, c-ermTR",0.5 µg/mL

# Source: article PMC11239830, “Synthetic macrolides overcoming MLSBK-resistant pathogens” (Cell Discovery, 2024)
